In general, IC50 refers to the concentration needed to halve the response being measured.

The text below walks through data of ChEMBL document CHEMBL2010654, “Novel isoxazole polycyclic aromatic hydrocarbons as DNA-intercalating agents” (Eur J Med Chem, 2012).

For one experiment, the system named is HeLa. Description: Cytotoxicity against human HeLa cells after 20 hrs by MTS assay. Format: functional, cell-based. A general note: Formazan colour is commonly taken as a measure of viable cells.
Experiment [1] concerns A549. Description: Cytotoxicity against human A549 cells after 20 hrs by SRB assay. The settings on record: A549, 20 h. Format: functional, cell-based. For orientation: In SRB staining, fixed cells bind dye roughly in proportion to their protein.
Another experiment concerns MOLT-3. Nature of the experiment: Cytotoxicity against human MOLT3 cells after 20 hrs by MTS assay. It is filed as functional, cell-based. The conditions noted are these: MOLT-3, 20 h.
The next experiment has as its system THP-1. Description: Cytotoxicity against human THP1 cells after 20 hrs by MTS assay. Format: functional, cell-based. The settings on record: THP-1, 20 h.
The subject of the next experiment is U-937. Description: Cytotoxicity against human U937 cells after 20 hrs by MTS assay. Format: functional, cell-based. The settings on record: U-937, 20 h.
Another experiment relates to Vero. Nature of the experiment: Cytotoxicity against african green monkey Vero cells after 20 hrs by MTS assay. Format: cell-based. The settings on record: Chlorocebus sabaeus.
For experiment [2], the system named is Nucleic Acid. Description: Binding affinity to Escherichia coli supercoiled phiX174 RF1 DNA assessed as DNA unwinding in presence of topoisomerase 1 after 30 mins by agarose gel electrophoresis. It is filed as nucleic-acid assay.
Experiment [3] concerns Nucleic Acid. Nature of the experiment: Binding affinity to calf thymus DNA by UV titration analysis. It is filed as nucleic-acid assay. The conditions noted are these: Bos taurus.
In experiment [4] the test system is Nucleic Acid. Nature of the experiment: Binding affinity to poly-d(AT)2 DNA by UV titration analysis. Format: nucleic-acid assay.
The subject of experiment [5] is Nucleic Acid. Description: Binding affinity to polyd(GC)2 DNA by UV titration analysis. Format: nucleic-acid assay.
The subject of experiment [6] is A549. Description: Cytotoxicity against human A549 cells assessed as reduction of cell number at 0.5 ug/ml after 8 hrs relative to control. It is filed as functional. More on the design: scale not given: the % may be the effect or the level left.

The source made the active and inactive calls. The calls are words filed in the database; no cut-off is given here. *1 amine or outer side, *2 acyl side, *3 side chain or, on linkers, in order; H or OH if unused. Where a SMILES comes first, the peptide text is derived from it. Bridges are numbered along the chain shown (N, C = ends). Roman numbers before positions name the chains, in order. [ ]: non-standard residue; d: D form. Actinocin(1to9) = Cc1c2oc3c(C)ccc(C(=O)[*:2])c3nc-2c(C(=O)[*:1])c(N)c1=O; NMeV = CN[C@H](C(=O)O)C(C)C; Sar = CNCC(=O)O Where only a bound is given, the exact number is not on record here.

As to `CN(C)C(=O)[C@H]1C[C@H](c2cc3ccccc3c3ccccc23)N(C)O1`, the IC50 in the experiment with HeLa was 86 µM; in the experiment on A549 [1], 68 µM; in the experiment with MOLT-3 it was 105 µM; in the experiment with THP-1, 95 µM; in the experiment with U-937, 98 µM; in the experiment with Vero it was 160 µM.
As to `CN(C)C(=O)C1CC(c2cc3ccccc3c3ccccc23)=NO1` (configuration not stated), the IC50 in the experiment on HeLa is 401 µM; in the experiment with A549 [1], 435 µM; in the experiment on MOLT-3 it was more than 500 µM; in the experiment with THP-1, more than 500 µM; in the experiment with U-937, more than 500 µM; in the experiment with Vero, more than 500 µM.
On to `CN(C)C(=O)C1CC(c2ccc3ccc4cccc5ccc2c3c45)=NO1` (configuration not stated), for which the IC50 came to 69 µM with HeLa; 49 µM in the experiment on A549 [1]; 65 µM in the experiment on MOLT-3; 69 µM in the experiment on THP-1; 194 µM in the experiment with U-937; 160 µM in the experiment with Vero.
Regarding `CN(C)C(=O)c1cc(-c2cc3ccccc3c3ccccc23)no1`, the IC50 in the experiment with HeLa was 290 µM; in the experiment on A549 [1], 335 µM; in the experiment with MOLT-3, 420 µM; in the experiment on THP-1, 403 µM; in the experiment on U-937, more than 500 µM; in the experiment with Vero, more than 500 µM.
Turning to `CN(C)C(=O)c1cc(-c2ccc3ccc4cccc5ccc2c3c45)no1`, the IC50 in the experiment on HeLa was found to be 71 µM; in the experiment with A549 [1] it was 60 µM; in the experiment with MOLT-3, 73 µM; in the experiment on THP-1 it was 78 µM; with U-937, 202 µM; in the experiment with Vero it was 165 µM.
In the case of `CN(C)C(=O)[C@@H]1CON(C)[C@H]1c1ccc2ccc3cccc4ccc1c2c34` (racemic), the IC50 in the experiment with HeLa worked out at 65 µM; in the experiment on A549 [1] it was 44 µM; with MOLT-3 it was 59 µM; with THP-1, 61 µM; in the experiment with U-937, 185 µM; in the experiment on Vero, 143 µM.
`CN(C)C(=O)[C@H]1CON(Cc2ccccc2)[C@H]1c1ccc2ccc3cccc4ccc1c2c34` (racemic): the IC50 with HeLa amounted to 79 µM; in the experiment with A549 [1], 63 µM; in the experiment with MOLT-3 it was 100 µM; in the experiment on THP-1, 93 µM; in the experiment on U-937 it was 102 µM; in the experiment with Vero, 151 µM.
Regarding `CN(C)C(=O)[C@@H]1C[C@H](c2ccc3ccc4cccc5ccc2c3c45)N(C)O1` (racemic), the IC50 with HeLa is 75 µM; in the experiment on A549 [1] it was 55 µM; in the experiment with MOLT-3 it was 69 µM; in the experiment on THP-1, 75 µM; in the experiment with U-937 it was 199 µM; in the experiment on Vero, 163 µM.
With `CN(C)C(=O)[C@H]1C[C@H](c2ccc3ccc4cccc5ccc2c3c45)N(Cc2ccccc2)O1` (racemic), the IC50 in the experiment with HeLa turned out to be 5 µM; in the experiment with A549 [1], 4 µM; in the experiment with MOLT-3 it was 6 µM; in the experiment with THP-1, 6 µM; with U-937 it was 37 µM; with Vero, 42 µM. Moreover, the result in the experiment on Nucleic Acid [2] was Active. Further, the values for the Kb in the experiment on Nucleic Acid [3], in the experiment on Nucleic Acid [4] and in the experiment on Nucleic Acid [5] were 1.7 ×10⁵ /M, 1.6 ×10⁵ /M and 0.3 ×10⁵ /M, respectively.
Consider `CN(C)C(=O)[C@H]1C[C@H](c2ccc3ccc4cccc5ccc2c3c45)N(C)O1` (racemic), for which the IC50 amounted to 63 µM in the experiment with HeLa; 41 µM in the experiment with A549 [1]; 52 µM in the experiment with MOLT-3; 60 µM in the experiment with THP-1; 165 µM in the experiment on U-937; 141 µM in the experiment with Vero.
For `CN(C)C(=O)[C@H]1C[C@H](c2cc3ccccc3c3ccccc23)N(Cc2ccccc2)O1` (racemic), the IC50 is 14 µM in the experiment with HeLa; 10 µM in the experiment on A549 [1]; 15 µM in the experiment on MOLT-3; 17 µM with THP-1; 100 µM in the experiment with U-937; 115 µM with Vero.
The compound `CN1O[C@H](CO)C[C@@H]1c1ccc2ccc3cccc4ccc1c2c34` (relative stereo) showed a Kb in the experiment on Nucleic Acid [3] of 6.8 ×10³ /M.
In the case of `Cc1c2oc3c(C)ccc(C(=O)N[C@@H]4C(=O)N[C@H](C(C)C)C(=O)N5CCC[C@H]5C(=O)N(C)CC(=O)N(C)[C@@H](C(C)C)C(=O)O[C@@H]4C)c3nc-2c(C(=O)N[C@@H]2C(=O)N[C@H](C(C)C)C(=O)N3CCC[C@H]3C(=O)N(C)CC(=O)N(C)[C@@H](C(C)C)C(=O)O[C@@H]2C)c(N)c1=O` [DACTINOMYCIN] (I: T[dV]P[Sar][NMeV] / II: T[dV]P[Sar][NMeV]; ester I:1-I:C, II:1-II:C; linker I:N-II:N via Actinocin(1to9)), the Activity in the experiment with A549 [6] was 40%.
